Data on five molecules can be found in paper PMC3227566, “Targeting Acetylcholinesterase: Identification of Chemical Leads by High Throughput Screening, Structure Determination and Molecular Modeling” (PLoS ONE, 2011).

SMILES strings stand for the structures. Like-named read-outs stand apart in the source and are kept apart here.

The target in this experiment is T1, recombinant hAChE (Homo sapiens, UniProt P22303).
T1 construct: made in house
Kind of experiment: biochemical. The source says:
A chemical library consisting of 17 500 substances was screened using the colorimetric Ellman assay and recombinant hAChE. The hydrolysis of acetylthiocholine iodide was monitored and the average slope of the positive controls was set to 100% activity. […] Molecules in Set 1 were selected to represent the chemical space according to a Principal Component Analysis (PCA) of the hits' structural and physicochemical features (see section Chemical space of AChE inhibitors, below).
The screening was performed at the Umeå Small Molecule Screening Facility currently incorporated in the screening platform of the Laboratories for Chemical Biology, Umeå (LCBU). Recombinant hAChE was expressed and purified according to previously described methods, [46]. The enzymatic activity was measured using the Ellman assay adapted to a 96-well format. The final assay volume was 200 µL and all measurements were performed in 0.2 mM 5,5′-Dithiobis(2-nitrobenzoic acid) and 1 mM acethylthiocholine iodide in 0.1 M phosphate buffer pH 8.0. […] Stock solutions were prepared in DMSO and transferred to the assay plate using a Biomek NC robotic system (BeckanCoulter). The enzymatic reaction was monitored for 120 seconds using an Infinite M200 plate-reader (Tekan) at a ligand concentration of 50 µM and temperature of 20°C. Each plate contained 80 samples, 14 positive controls and two negative controls. […] Substances reducing the activity by at least 70% were scored as hits. […] For each inhibitor, the enzymatic activity was determined at eight concentrations selected to produce a dose-response curve that was subsequently analyzed using Prism.

Where [1] appears, read: hits with determined crystal structures, mean ± standard deviation of 2–5 determinations, read-out: IC50.

T1 sequence (P22303 32-614): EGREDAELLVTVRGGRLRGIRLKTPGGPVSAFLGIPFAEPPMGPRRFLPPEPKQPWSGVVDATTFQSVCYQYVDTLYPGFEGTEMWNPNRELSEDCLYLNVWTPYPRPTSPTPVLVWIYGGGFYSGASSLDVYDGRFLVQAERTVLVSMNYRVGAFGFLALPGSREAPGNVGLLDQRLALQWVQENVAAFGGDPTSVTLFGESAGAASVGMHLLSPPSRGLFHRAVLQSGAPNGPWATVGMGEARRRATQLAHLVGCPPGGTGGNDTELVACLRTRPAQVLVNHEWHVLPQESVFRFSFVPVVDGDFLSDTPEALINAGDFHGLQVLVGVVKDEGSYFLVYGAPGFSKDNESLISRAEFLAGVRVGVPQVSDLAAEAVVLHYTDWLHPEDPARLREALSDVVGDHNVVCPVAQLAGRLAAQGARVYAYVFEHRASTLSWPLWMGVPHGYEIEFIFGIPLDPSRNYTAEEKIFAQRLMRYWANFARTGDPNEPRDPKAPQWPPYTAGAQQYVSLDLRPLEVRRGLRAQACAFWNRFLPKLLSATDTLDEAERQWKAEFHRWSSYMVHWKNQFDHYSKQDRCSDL

On to `COC(=O)CSc1nc(C)c(C)c(C)c1C#N` [Compound C5231], for which, under setting [1], the IC50 came to 36000 ± 6300 nM.

For the molecule `CCN1CCCC1CNC(=O)c1cc([N+](=O)[O-])c(N(C)C)cc1OC` (centres unmarked) [Compound C5685], the IC50 turned out to be 1300 ± 100 nM.

On to `CCN(CC)CCCNc1c([N+](=O)[O-])c(=O)n(C)c2ccccc12` [Compound C6905], for which the IC50 under setting [1] was 2000 ± 100 nM.

On to `CCN(CC)CCCNc1oc(-c2ccc(Cl)cc2)nc1C#N` [Compound C7491], for which the IC50 under setting [1] came to 21400 ± 1700 nM.

In the case of `COc1ccc(C(=O)NC(=S)Nc2ccc(N3CCN(C)CC3)cc2)cc1[N+](=O)[O-]` [Compound C7643], under setting [1], the half-inhibitory concentration (IC50) came out at 540 ± 30 nM.
